Measured values taken from patent US20120165331A1, “Di/tri-aza-spiro-C9-C11alkanes” (priority 2010, published 2012).

Legend:
human orexin 1 receptor = target: T1, human orexin 1 receptor (Homo sapiens, UniProt O43613); assay: Calcium accumulation in cells (FLIPR), antagonism of orexin A, human orexin 1 receptor; type: cell-based; settings: for Ki: calcium accumulation, antagonism of orexin A, Cheng-Prusoff corrected, read-out: FLIPR hOx1R Ki; for inhibition at 10 µM: measured at a concentration of 10 μM of compound, read-out: FLIPR hOx1R % inhibition
T1 construct: expressed in transfected cells
T1 sequence (O43613 1-425): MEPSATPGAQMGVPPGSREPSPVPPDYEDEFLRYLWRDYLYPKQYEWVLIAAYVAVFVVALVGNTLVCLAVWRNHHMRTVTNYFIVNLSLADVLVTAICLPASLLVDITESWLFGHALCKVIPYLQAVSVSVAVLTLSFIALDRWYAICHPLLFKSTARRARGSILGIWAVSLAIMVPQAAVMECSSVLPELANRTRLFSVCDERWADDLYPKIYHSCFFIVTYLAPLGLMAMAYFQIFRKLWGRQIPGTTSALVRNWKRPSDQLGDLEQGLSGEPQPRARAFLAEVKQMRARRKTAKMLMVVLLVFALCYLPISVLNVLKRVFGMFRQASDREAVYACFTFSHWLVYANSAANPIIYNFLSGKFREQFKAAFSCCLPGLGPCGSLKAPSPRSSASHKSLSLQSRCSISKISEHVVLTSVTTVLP
Procedure: (§1) Calcium Accumulation in Cells (FLIPR):
(§2) Cells expressing human orexin 1 or human orexin 2 receptors, were seeded at 8,000 cells/well in 384 well black-walled clear bottom, poly-D-lysine coated plates. After 24 h, the medium was removed and cells were washed once with phosphate buffered saline and serum-deprived overnight in assay buffer (130 mM NaCl, 5.4 mM KCl, 1.8 mM CaCl2, 0.8 mM MgSO4, 0.9 mM NaH2PO4, 25 mM glucose, 20 mM HEPES, pH 7.4) containing bovine serum albumin (1% w/v).
(§3) On the day of the experiment, the cells seeded in black plates were treated with assay buffer containing the Ca^2+ sensitive fluorescent dye Fluo-4-AM (2 μM), and probenecid (0.1 mM). After 1 h plates were washed twice with, and resuspended in, assay buffer containing probenecid (0.1 mM) using a multi plate washer. The plates were placed into a FLIPR II (Fluorometric Imaging Plate Reader, Molecular Devices, Sunnyvale, Calif., USA) and baseline fluorescence (fluorescence light units, FLU) was measured (5 measurements, 2 S each; laser excitation 488 nm at 0.6-1 W, CCD camera exposure 0.4 s) before addition of buffer alone (basal) or containing test compounds (either compound of formula I alone, agonist alone or agonist in the presence of various concentrations of compounds of formula I). Fluorescence measurements were then continued every 1 S for 120 S followed by every 4 S for 240 S.
(§4) The measurements were typically made in two sequences:
(§5) Compounds of formula I were tested usually in a concentration range from 10^−9 M to 10^−5 M.
(§6) In the second round, performed one hour later (to allow for equilibration), Orexin A was tested either in the absence (calibration curves, Orexin A agonist controls) or in the presence of compounds of formula Ito determine antagonism.
(§7) Inhibition data is expressed in Table 1 as Kd [μM], converted by the Cheng and Prusoff correction (Kd=IC50/1+(L/EC50)), where IC50 is the 50% inhibition value determined in concentration response inhibition curves, EC50 is the half maximal activation concentration determined for orexin A in concentration response curves and L is the concentration of orexin A used in inhibition experiments performed in with a submaximal concentration of orexin A in the presence of up to 8 increasing concentrations of compound of formula I. Inhibition data is also expressed in Table 1 as % inhibition value measured at a concentration of 10 μM of selected compounds of formula I.

human orexin 2 receptor = target: T2, human orexin 2 receptor (Homo sapiens, UniProt O43614); assay: Calcium accumulation in cells (FLIPR), antagonism of orexin A, human orexin 2 receptor; type: cell-based; settings: for Ki: calcium accumulation, antagonism of orexin A, Cheng-Prusoff corrected, read-out: FLIPR hOx2R Ki; for inhibition at 10 µM: measured at a concentration of 10 μM of compound, read-out: FLIPR hOx2R % inhibition
T2 construct: expressed in transfected cells
T2 sequence (O43614 1-444): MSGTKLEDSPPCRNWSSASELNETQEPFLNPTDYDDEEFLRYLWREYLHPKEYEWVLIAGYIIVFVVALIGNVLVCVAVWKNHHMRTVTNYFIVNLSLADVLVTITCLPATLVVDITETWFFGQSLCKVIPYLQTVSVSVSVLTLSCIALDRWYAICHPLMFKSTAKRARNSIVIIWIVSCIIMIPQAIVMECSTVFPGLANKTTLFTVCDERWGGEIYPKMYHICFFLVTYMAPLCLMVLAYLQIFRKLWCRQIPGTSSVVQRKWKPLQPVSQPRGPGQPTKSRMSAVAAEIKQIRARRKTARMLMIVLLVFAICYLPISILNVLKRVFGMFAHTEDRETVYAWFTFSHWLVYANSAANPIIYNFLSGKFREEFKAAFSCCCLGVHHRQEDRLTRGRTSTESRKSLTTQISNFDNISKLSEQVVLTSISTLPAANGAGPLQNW
Procedure: as §1, §2, §3, §4, §5, §6, §7

| SMILES | Ki (human orexin 1 receptor) | Ki (human orexin 2 receptor) | inhibition at 10 µM (human orexin 1 receptor) | inhibition at 10 µM (human orexin 2 receptor) |
| --- | --- | --- | --- | --- |
| COc1cc(C)nc(N2CCC3(CCN(Cc4c[nH]c5ccccc45)C3=O)C2)n1 (stereo not shown) [Example 5.4, 2-((1H-indol-3-yl)methyl)-7-(4-methoxy-6-methylpyrimidin-2-yl)-2,7-diazaspiro[4.4]nonan-1-one] | 1.05 µM | 0.119 µM |  |  |
| Cc1cc(C)nc(N2CCC3(CCN(Cc4c[nH]c5ccccc45)C3=O)C2)c1 (stereo not shown) [Example 5.29, 2-((1H-indol-3-yl)methyl)-7-(4,6-dimethylpyridin-2-yl)-2,7-diazaspiro[4.4]nonan-1-one] | 1.49 µM | 0.114 µM |  |  |
| Cc1cc(C)nc(N2CCC3(CCN(Cc4c[nH]c5ccccc45)C3=O)C2)n1 (stereo not shown) [Example 5.7, 2-((1H-Indol-3-yl)methyl)-7-(4,6-dimethylpyrimidin-2-yl)-2,7-diazaspiro[4.4]nonan-1-one] | 2.13 µM | 0.249 µM |  |  |
| COc1cccc(-c2cn(C)nc2CN2CCNC3(CCN(c4nc(C)cc(C)n4)CC3)C2=O)n1 [Example 1.54, 9-(4,6-Dimethyl-pyrimidin-2-yl)-4-((4-(6-methoxypyridin-2-yl)-1-methyl-1H-pyrazol-3-yl)methyl)-1,4,9-triazaspiro[5.5] undecan-5-one] |  |  | 15% | 32% |
| COCc1ccc(-c2cn(C)nc2CN2CCNC3(CCN(c4nc(C)cc(C)n4)CC3)C2=O)cc1 [Example 1.51, 9-(4,6-Dimethyl-pyrimidin-2-yl)-4-((4-(4-(methoxymethyl)phenyl)-1-methyl-1H-pyrazol-3-yl)methyl)-1,4,9-triazaspiro[5.5] undecan-5-one] |  | 1.24 µM | < 10% |  |
| Cc1cc(C)nc(N2CCC3(CC2)NCCN(Cc2nn(C)nc2-c2ccccc2)C3=O)n1 [Example 1.83, 9-(4,6-dimethyl-pyrimidin-2-yl)-4-((2-methyl-5-phenyl-2H-1,2,3-triazol-4-yl)methyl)-1,4,9-triazaspiro[5.5] undecan-5-one] | 4.45 µM | 0.24 µM |  |  |
| Cc1ccc(C)c(CN2C(=O)COCC23CCN(c2cncc(C)n2)CC3)c1 [Example 8.13, 1-(2,5-Dimethylbenzyl)-9-(6-methylpyrazin-2-yl)-4-oxa-1,9-diazaspiro[5.5]undecan-2-one] |  | 0.405 µM | < 10% |  |
| COc1cccc(-c2oc(C)nc2CN2CCNC3(CCN(c4nccc(C)n4)CC3)C2=O)c1 [Example 1.15, 4-((5-(3-Methoxyphenyl)-2-methyloxazol-4-yl)methyl)-9-(4-methylpyrimidin-2-yl)-1,4,9-triazaspiro[5.5] undecan-5-one] |  | 0.107 µM | 44% |  |
| O=C1N(Cc2c[nH]c3ccccc23)CCC12CCN(c1ncc3cc(F)ccc3n1)C2 (stereo not shown) [Example 5.16, 2-((1H-Indol-3-yl)methyl)-7-(6-fluoroquinazolin-2-yl)-2,7-diazaspiro[4.4]nonan-1-one] | 1.12 µM | 0.509 µM |  |  |
| O=C1N(Cc2c[nH]c3ccccc23)CCC12CCN(c1nccc(C(F)(F)F)n1)C2 (stereo not shown) [Example 5.41, 2-((1H-indol-3-yl)methyl)-7-(4-(trifluoromethyl)pyrimidin-2-yl)-2,7-diazaspiro[4.4]nonan-1-one] | 2.41 µM | 0.343 µM |  |  |
| Cc1cc(C)nc(N2CCC3(CCN(Cc4ccc5[nH]ccc5c4)C3=O)CC2)n1 [Example 3.23, 2-((1H-indol-5-yl)methyl)-8-(4,6-dimethylpyrimidin-2-yl)-2,8-diazaspiro[4.5]decan-1-one] |  | 2.39 µM | 10% |  |
| COc1cccc(-c2n[nH]nc2CN2CCC3(CCN(c4nccc(OC)n4)C3)C2=O)c1 (stereo not shown) [Example 5.14, 2-((5-(3-Methoxyphenyl)-2H-1,2,3-triazol-4-yl)methyl)-7-(4-methoxypyrimidin-2-yl)-2,7-diazaspiro[4.4]nonan-1-one] | 0.544 µM | 0.146 µM |  |  |
| Cc1cc(C)nc(N2CCC3(CC2)NCCN(Cc2n[nH]c4ccccc24)C3=O)n1 [Example 1.50, 4-((1H-Indazol-3-yl)methyl)-9-(4,6-dimethylpyrimidin-2-yl)-1,4,9-triazaspiro[5.5] undecan-5-one] | 1.18 µM | 0.086 µM |  |  |
| Cc1cc(C)nc(N2CCC3(CC2)NCCN(Cc2nn(C)cc2-c2ccccc2)C3=O)n1 [Example 1.3, 9-(4,6-Dimethyl-pyrimidin-2-yl)-4-(1-methyl-4-phenyl-1H-pyrazol-3-ylmethyl)-1,4,9-triaza-spiro[5.5]undecan-5-on] |  | 0.334 µM | 35% |  |
| O=C1N(Cc2c[nH]c3ccccc23)CCC12CCN(c1nc3ccccc3[nH]1)CC2 [Example 3.12, 8-(1H-Benzoimidazol-2-yl)-2-(1H-indol-3-ylmethyl)-2,8-diaza-spiro[4.5]decan-1-one] | 4.97 µM | 0.376 µM |  |  |
| Cc1csc(N2CCC3(CCN(Cc4c[nH]c5ccccc45)C3=O)C2)n1 (stereo not shown) [Example 5.37, 2-((1H-indol-3-yl)methyl)-7-(4-methylthiazol-2-yl)-2,7-diazaspiro[4.4]nonan-1-one] | 3.59 µM | 1.41 µM |  |  |
| Cc1cc(C)nc(N2CCC3(CC2)NCCN(Cc2nocc2-c2ccccc2)C3=O)n1 [Example 1.81, 9-(4,6-dimethyl-pyrimidin-2-yl)-4-((4-phenyl-isoxazol-3-yl)methyl)-1,4,9-triazaspiro[5.5] undecan-5-one] |  | 2.19 µM | 33% |  |
| CCc1ccnc(N2CCC3(CC2)OCCN(Cc2c[nH]c4ccccc24)C3=O)n1 [Example 2.22, 4-((1H-indol-3-yl)methyl)-9-(4-ethylpyrimidin-2-yl)-1-oxa-4,9-diazaspiro[5.5]undecan-5-one] | 2.78 µM | 0.251 µM |  |  |
| Cc1cncc(N2CCC3(CC2)COC(=O)N3Cc2cccc3[nH]ccc23)n1 [Example 8.25, 1-((1H-Indol-4-yl)methyl)-8-(6-methylpyrazin-2-yl)-3-oxa-1,8-diazaspiro[4.5]decan-2-one] |  | 0.675 µM | < 10% |  |
| Cc1cc(N2CCOCC2)nc(N2CCC3(CCN(Cc4c[nH]c5ccccc45)C3=O)C2)n1 (stereo not shown) [Example 5.25, 2-((1H-indol-3-yl)methyl)-7-(4-methyl-6-morpholinopyrimidin-2-yl)-2,7-diazaspiro[4.4]nonan-1-one] |  |  | 71% | 66% |
| O=C1N(Cc2c[nH]c3ccccc23)CCC12CCN(c1nccc(-n3ccnc3)n1)C2 (stereo not shown) [Example 5.18, 7-(4-(1H-imidazol-1-yl)pyrimidin-2-yl)-2-((1H-indol-3-yl)methyl)-2,7-diazaspiro[4.4]nonan-1-one] | 1.89 µM | 1.24 µM |  |  |
| COc1ccnc(N2CCC3(CCN(Cc4c[nH]c5ncccc45)C3=O)CC2)n1 [Example 3.15, 8-(4-Methoxy-pyrimidin-2-yl)-2-(1H-pyrrolo[2,3-b]pyridin-3-ylmethyl)-2,8-diaza-spiro[4.5]decan-1-one] |  | 0.637 µM | 26% |  |
| O=C1N(Cc2c[nH]c3ccccc23)CCC12CCN(c1cc(N3CCCC3)ncn1)C2 (stereo not shown) [Example 5.35, 2-((1H-indol-3-yl)methyl)-7-(6-(pyrrolidin-1-yl)pyrimidin-4-yl)-2,7-diazaspiro[4.4]nonan-1-one] | 1.77 µM | 2.72 µM |  |  |
